# Reference: US20220326219A1, “METHODS AND DEVICE FOR THE ANALYSIS OF TISSUE SAMPLES” (PRECOMB THERAPEUTICS AG, priority 2019, published 2022)
# Tests used:
# [1] = system: living, perfused microvessels (vasculature) of in vitro vascularized microtumors; details: VMT platform, Sobrino et al. 2016; cited from earlier work
# [2] = system: pancreatic patient-derived xenograft; assay: In vivo efficacy in pancreatic patient-derived xenograft (PDX-mouse model); details: average response of 5 individual animals
# Procedure: To compare whether the in vitro efficacy analysis is matching in vivo (mouse) efficacy drug response data as obtained, pancreatic patient-derived xenograft (PDX-mouse model) and pancreatic microtumors derived from PDX tumor tissue were generated. Two single drugs (Gemcitabine and Abraxane) and two drug combinations (Gemcitabine:Erlotinib and Gemcitabine:Abraxane) were tested. In vivo data points reflect the average response of 5 individual animals.
# [3] = system: pancreatic pdx microtumors 12558; assay: Drug efficacy on PDX-derived pancreatic microtumors by tumor growth kinetics over 11 days; assay type: cell-based; details: drugs at cmax values in vivo, 11 days monitoring
SMILES,effect on vasculature of vascularized microtumors [1],in vivo (mouse) efficacy drug response [2],drug efficacy on microtumors (t11/t0 and t11treated/t11control) [3]
N#CC1(c2ccc(NC(=O)c3cccnc3NCc3ccncc3)cc2)CCCC1 [Apatinib],not effective,–,–
Nc1ccn([C@@H]2O[C@H](CO)[C@@H](O)C2(F)F)c(=O)n1 [Gemcitabine],–,highest efficacy,highest efficacy
O=C1[O][Pt]2([NH][C@@H]3CCCC[C@H]3[NH]2)[O]C1=O [Oxaliplatin],–,–,least effective
